Results on twelve molecules are retold here after ChEMBL document CHEMBL1201862, “PubChem BioAssay data set” (2004).

Each structure is given as a SMILES string.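 Protocol summary: plate cells (96-well), add compound at 5 concentrations, incubate 48 h, interpolate endpoints linearly. At the GI50, growth is halved.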 Activity calls are given as the source filed them. No stated cut-off is given here; in the data, active = GI50 up to about 1.1 µM and inactive = higher.

Among the test systems are K562; SF-268; NCI-H460; A549; SW-620; BT-549; HOP-92; PC-3; SR; ACHN; SN12C; HCT-15; LOX IMVI; TK-10; UACC-62; NCI-H522; CAKI-1; MCF7; KM12; T47D.
What all share (test): NCI-60 cell line screen, 48 h

Consider `CN1CC[C@@]2(c3cccc(O)c3)CC(=O)/C(=C/c3ccc(Cl)c(Cl)c3)[C@H]1C2`, for which the GI50 with K562 is 0.433 µM (active); in the assay with SF-268, 2.63 µM (inactive); with NCI-H460, 2.11 µM (inactive); with A549, 3.28 µM (inactive); in the assay on SW-620 it was 1.68 µM (inactive); in the assay on BT-549, 2.52 µM (inactive). In addition, the GI50 in the assay on HOP-92 is 4.49 µM (inactive); in the assay on PC-3 it was 1.57 µM (inactive); in the assay with SR, 1.14 µM (inactive); in the assay with ACHN, 1.67 µM (inactive); with SN12C, 2.04 µM (inactive); in the assay with HCT-15, 1.98 µM. The GI50 with LOX IMVI is 1.48 µM (inactive); with TK-10 it was 14 µM (inactive).
For the molecule `CC(C)N1CC2CN(Cc3ccccc3)CC(C1)C2=O`, the GI50 with K562, in the assay on SF-268, with NCI-H460, in the assay on A549, with SW-620 and with UACC-62 was > 100 µM (inactive) throughout. The GI50 with BT-549, in the assay with NCI-H522, in the assay on HOP-92, in the assay with PC-3, in the assay on SR and in the assay with ACHN was > 100 µM (inactive) each time. In addition, the GI50 in the assay with CAKI-1 is > 100 µM (inactive); in the assay with SN12C it was > 100 µM (inactive); in the assay with MCF7 it was > 100 µM (inactive); with HCT-15, above 100 µM; in the assay on LOX IMVI it was > 100 µM (inactive); in the assay on TK-10 it was > 100 µM (inactive). In addition, in the assay with KM12, the GI50 is > 100 µM (inactive).
`CCCCCC(C/C=N/N(C)C)C(O)(C(F)(F)F)C(F)(F)F` (stereo not drawn): the GI50 was 22.5 µM (inactive) with K562; 36.7 µM (inactive) with SF-268; 36.4 µM (inactive) in the assay with NCI-H460; 37.2 µM (inactive) in the assay with A549; 38 µM (inactive) in the assay with SW-620; 59.8 µM (inactive) with UACC-62. The GI50 with NCI-H522 is 19.7 µM (inactive); with HOP-92, 33 µM (inactive); with PC-3 it was 20.8 µM (inactive); in the assay on SR, 34.8 µM (inactive); in the assay with ACHN, 24.4 µM (inactive); in the assay on CAKI-1 it was 43.6 µM (inactive). Also, the GI50 with SN12C was 28.2 µM (inactive); in the assay with HCT-15 it was 49.8 µM; in the assay with LOX IMVI it was 43.2 µM (inactive); with TK-10, 54.2 µM (inactive); in the assay on T47D, 25.9 µM (inactive); in the assay on KM12 it was 36.3 µM (inactive).
As to `Cc1ccc(/N=N/NCCCCN)cc1`, the GI50 with K562 was > 10 µM (inactive); with SF-268 it was > 100 µM (inactive); with A549, 8.75 µM (inactive); in the assay with SW-620, > 100 µM (inactive); in the assay with UACC-62 it was > 100 µM (inactive); with BT-549 it was > 100 µM (inactive). Moreover, the GI50 was > 100 µM (inactive) in the assay with NCI-H522; > 100 µM (inactive) in the assay on HOP-92; > 100 µM (inactive) with SR; 12.6 µM (inactive) in the assay with ACHN; > 100 µM (inactive) in the assay on CAKI-1; > 100 µM (inactive) in the assay on SN12C. Moreover, the GI50 is > 100 µM (inactive) in the assay with MCF7; above 100 µM in the assay on HCT-15; 10.1 µM (inactive) in the assay on LOX IMVI; > 100 µM (inactive) with TK-10; > 100 µM (inactive) in the assay on T47D; 81.7 µM (inactive) with KM12.
On to `Cc1c(C#N)c(N)n(C2OC(CO)C(O)C(O)C2O)c(=S)c1C#N` (stereo not drawn), for which the GI50 with K562, in the assay on SF-268, in the assay with NCI-H460, in the assay on A549, with SW-620 and in the assay on UACC-62 was > 100 µM (inactive) each time. For the same molecule, the GI50 with NCI-H522, in the assay with HOP-92, with PC-3, in the assay on SR, in the assay with ACHN and in the assay with SN12C was > 100 µM (inactive) in each case. The GI50 in the assay with MCF7 was > 100 µM (inactive); with HCT-15 it was above 100 µM; with LOX IMVI, > 100 µM (inactive); in the assay with TK-10, > 100 µM (inactive); in the assay with KM12 it was > 100 µM (inactive).
For `CCOC(=O)CCc1c(C(=O)OCC)[nH]c(/C=C2\NC(=O)C(C)=C2CC)c1C`, the GI50 in the assay on K562 was > 100 µM (inactive); in the assay with SF-268, 26.9 µM (inactive); with NCI-H460, 44.3 µM (inactive); in the assay on A549 it was 40.1 µM (inactive); in the assay on UACC-62, 19.2 µM (inactive); in the assay on NCI-H522, 14.5 µM (inactive). The GI50 with HOP-92 is 16.1 µM (inactive); in the assay on PC-3 it was 26.4 µM (inactive); in the assay on ACHN, 15.5 µM (inactive); with CAKI-1, 24.3 µM (inactive); in the assay with SN12C, 32.6 µM (inactive); in the assay with MCF7 it was 41 µM (inactive). Further, the GI50 with HCT-15 is 26.1 µM; with LOX IMVI, 22.5 µM (inactive); with T47D it was 10.1 µM (inactive); in the assay on KM12 it was > 100 µM (inactive).
With `COC(=O)/C=C/c1cc(O)c2c(c1)[C@H](C(=O)OC)[C@@H](c1ccc(O)c(O)c1)O2`, the GI50 in the assay on K562 is 0.0306 µM (active); in the assay on SF-268 it was 0.635 µM (active); in the assay on NCI-H460 it was 2.56 µM (inactive); in the assay on A549, 0.877 µM (active); in the assay with SW-620 it was 0.0428 µM (active); with UACC-62, 0.0865 µM (active). Further, the GI50 with NCI-H522 was 0.0706 µM (active); with HOP-92, 9.89 µM (inactive); in the assay on PC-3, 1.57 µM (inactive); with SR, 0.0316 µM (active); in the assay on ACHN, 0.08 µM (active); in the assay on CAKI-1 it was 0.544 µM (active). The GI50 in the assay with SN12C was 0.18 µM (active); in the assay on MCF7, 0.108 µM (active); in the assay with HCT-15, 0.0451 µM; in the assay on LOX IMVI, 0.0757 µM (active); in the assay on TK-10, 24.7 µM (inactive); in the assay on KM12 it was 0.283 µM (active).
Take `Cc1cc2c(s1)C(=O)c1sccc1C2=O`: the GI50 was 1.91 µM (inactive) with K562; 0.762 µM (active) in the assay with SF-268; 1.72 µM (inactive) with NCI-H460; 0.625 µM (active) in the assay on A549; 0.275 µM (active) in the assay with SW-620; 0.24 µM (active) with UACC-62. In addition, the GI50 was 0.552 µM (active) with NCI-H522; 1.52 µM (inactive) in the assay on HOP-92; 0.942 µM (active) in the assay with PC-3; 3.01 µM (inactive) in the assay with SR; 1.05 µM (active) with ACHN; 1.75 µM (inactive) in the assay on CAKI-1. Moreover, the GI50 in the assay with SN12C is 0.388 µM (active); in the assay on MCF7, 1.26 µM (inactive); with HCT-15 it was 1.19 µM; in the assay with LOX IMVI, 0.152 µM (active); in the assay with TK-10 it was 2.85 µM (inactive); in the assay with T47D it was 1.63 µM (inactive). The GI50 in the assay with KM12 is 1.63 µM (inactive).
Take `COC1(OC)CCCc2c1no[n+]2[O-]`: the GI50 with K562, in the assay with SF-268, with NCI-H460, in the assay with A549, in the assay with SW-620 and in the assay on UACC-62 was > 100 µM (inactive) throughout. The GI50 in the assay with NCI-H522, in the assay with PC-3, with SR, with ACHN, in the assay on CAKI-1 and with SN12C was > 100 µM (inactive) in each case. For the same molecule, the GI50 in the assay on MCF7 was > 100 µM (inactive); in the assay with HCT-15 it was above 100 µM; with LOX IMVI, > 100 µM (inactive); in the assay on TK-10, > 100 µM (inactive); in the assay on KM12 it was > 100 µM (inactive).
`N#Cc1nc(NC(=O)c2ccccc2)sc1N`: the GI50 in the assay with K562, with SF-268, in the assay with NCI-H460, in the assay with A549, in the assay with SW-620 and in the assay on UACC-62 was > 10 µM (inactive) throughout. For the same molecule, the GI50 in the assay with NCI-H522 is > 10 µM (inactive); with HOP-92, > 10 µM (inactive); with PC-3 it was > 10 µM (inactive); in the assay with SR, > 6.01 µM (inactive); in the assay on ACHN it was > 10 µM (inactive); in the assay with CAKI-1 it was > 10 µM (inactive). Moreover, the GI50 in the assay on SN12C is > 10 µM (inactive); with MCF7, > 2.22 µM (inactive); with HCT-15, above 10 µM; with LOX IMVI, > 10 µM (inactive); in the assay with TK-10 it was > 10 µM (inactive); in the assay with T47D, > 4.03 µM (inactive). The GI50 in the assay with KM12 was > 10 µM (inactive).
As to `CCc1ccc2c(c1)CC1(C2)Cc2cc3c(cc2C1)C(=O)CC3` (stereo not drawn), the GI50 in the assay on K562 was 3.85 µM (inactive); in the assay with A549, 24.2 µM (inactive); in the assay with UACC-62, > 100 µM (inactive); in the assay on NCI-H522, 20.3 µM (inactive); in the assay on HOP-92, 14.7 µM (inactive); in the assay on PC-3 it was 16.3 µM (inactive). Moreover, the GI50 with ACHN is 17.9 µM (inactive); in the assay on SN12C it was 27 µM (inactive); in the assay on MCF7, 5.08 µM (inactive); in the assay with HCT-15, 23.9 µM; with LOX IMVI, 15.4 µM (inactive); in the assay with TK-10, 38.6 µM (inactive). Also, the GI50 in the assay on T47D is 12.1 µM (inactive); with KM12, 10.5 µM (inactive).
Take `Cc1[nH]n(-c2ncc(C#N)c(=O)[nH]2)c(=O)c1CCO`: the GI50 in the assay on K562, with SF-268, in the assay with NCI-H460, with A549, in the assay on SW-620 and in the assay on UACC-62 was > 100 µM (inactive) in each case. Further, the GI50 with NCI-H522, with HOP-92, in the assay on PC-3, in the assay with SR, with ACHN and with CAKI-1 was > 100 µM (inactive) throughout. Besides, the GI50 was > 100 µM (inactive) in the assay with SN12C; > 100 µM (inactive) in the assay with MCF7; above 100 µM in the assay with HCT-15; > 100 µM (inactive) in the assay with LOX IMVI; > 100 µM (inactive) in the assay on TK-10; > 100 µM (inactive) in the assay on T47D. Moreover, the GI50 in the assay on KM12 was > 100 µM (inactive).
